Like-named read-outs stand apart in the source and are kept apart here.
Legend:
[1] = system: Aβ; set-up: method as in Boländer et al., 2012; settings: ref Boländer et al., 2012; read-out: IC50 for inhibiting Aβ aggregation (bis-(arylvinyl)pyrazines); cited from earlier work
[2] = system: Tau; set-up: method as in Boländer et al., 2012; settings: ref Boländer et al., 2012; read-out: IC50 for inhibiting tau protein phosphorylation (bis-(arylvinyl)pyrazines); cited from earlier work
[3] = system: MAO-A; settings: 2023, cited from earlier work
[4] = system: MAO-B; set-up: method as in Du et al., 2023; Haider et al., 2018; settings: ref Du et al., 2023; Haider et al., 2018; read-out: MAO-B (compound 6 of Figure 1); cited from earlier work
[5] = biological target: hAChE (Homo sapiens, UniProt P22303); test: biochemical; settings: read-out: inhibition of hAChE in primary screening
Chain of hAChE (P22303 32-614): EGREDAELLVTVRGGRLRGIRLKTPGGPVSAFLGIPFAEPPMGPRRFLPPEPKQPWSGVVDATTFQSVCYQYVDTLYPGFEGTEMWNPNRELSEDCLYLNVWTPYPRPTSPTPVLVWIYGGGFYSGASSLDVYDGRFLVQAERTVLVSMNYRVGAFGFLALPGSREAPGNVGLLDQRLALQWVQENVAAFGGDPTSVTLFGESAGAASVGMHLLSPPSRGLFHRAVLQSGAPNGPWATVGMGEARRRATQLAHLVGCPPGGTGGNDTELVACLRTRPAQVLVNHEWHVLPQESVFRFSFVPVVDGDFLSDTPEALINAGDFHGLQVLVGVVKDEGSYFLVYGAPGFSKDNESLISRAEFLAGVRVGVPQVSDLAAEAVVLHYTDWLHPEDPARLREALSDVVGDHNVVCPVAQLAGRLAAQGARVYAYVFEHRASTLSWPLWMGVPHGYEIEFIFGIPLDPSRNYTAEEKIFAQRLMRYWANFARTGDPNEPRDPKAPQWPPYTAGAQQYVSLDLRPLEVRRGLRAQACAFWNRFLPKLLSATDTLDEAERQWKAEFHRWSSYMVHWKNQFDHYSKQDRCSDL
Protocol: 50 μL of hAChE (0.02 unit/mL) or hBChE (0.02 unit/mL) were incubated with 10 μL of the compound in 96-well plates at 37°C for 6 min. Subsequently, 30 μL of a substrate solution containing acetylthiocholine iodide (ATCI) or butyrylthiocholine iodide (BTCI) at a concentration of 0.01 M was added, and the mixture was further incubated at 37°C for an additional duration of 12 min.

[6] = biological target: hBuChE (Homo sapiens, UniProt P06276); test: Ellman's assay, hBuChE inhibition; type: biochemical; settings: read-out: inhibition of hBuChE in primary screening
Chain of hBuChE (P06276 29-602): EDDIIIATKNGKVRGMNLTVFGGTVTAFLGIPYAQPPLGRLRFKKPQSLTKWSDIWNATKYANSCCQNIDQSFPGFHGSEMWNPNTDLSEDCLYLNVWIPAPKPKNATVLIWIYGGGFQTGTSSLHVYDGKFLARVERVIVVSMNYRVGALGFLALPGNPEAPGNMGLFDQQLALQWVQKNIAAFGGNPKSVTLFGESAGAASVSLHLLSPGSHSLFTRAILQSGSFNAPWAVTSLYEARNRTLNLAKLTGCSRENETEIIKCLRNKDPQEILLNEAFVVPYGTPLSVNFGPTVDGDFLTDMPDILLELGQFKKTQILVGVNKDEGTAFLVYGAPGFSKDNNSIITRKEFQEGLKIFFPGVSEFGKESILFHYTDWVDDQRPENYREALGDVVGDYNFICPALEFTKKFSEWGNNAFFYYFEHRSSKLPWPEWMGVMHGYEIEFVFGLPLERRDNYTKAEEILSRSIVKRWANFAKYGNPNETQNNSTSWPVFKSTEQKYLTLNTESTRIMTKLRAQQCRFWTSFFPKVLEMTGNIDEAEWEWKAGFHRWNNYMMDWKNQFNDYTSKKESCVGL
Protocol: The Ellman’s assay was utilized to assess the inhibitory potential of novel bis(7)-harmine derivatives against hAChE and hBuChE. 50 μL of hAChE (0.02 unit/mL) or hBChE (0.02 unit/mL) were incubated with 10 μL of the compound in 96-well plates at 37°C for 6 min. Subsequently, 30 μL of a substrate solution containing acetylthiocholine iodide (ATCI) or butyrylthiocholine iodide (BTCI) at a concentration of 0.01 M was added, and the mixture was further incubated at 37°C for an additional duration of 12 min. Finally, the activity was measured by adding 150 μL of a solution containing 5,5′−dithiobis (2-nitrobenzoic acid) (DTNB) at a concentration of 0.01 M, followed by measuring absorbance at a wavelength of 415 nm using an Evolution 300 PC UV-Vis Spectrophotometer.

[7] = biological target: T1, recombinant hMAO-B (Homo sapiens, UniProt P27338); test: biochemical; settings: read-out: inhibition of hMAO-B in primary screening
T1 construct: purchased Sigma-Aldrich
T1 sequence (P27338 1-520): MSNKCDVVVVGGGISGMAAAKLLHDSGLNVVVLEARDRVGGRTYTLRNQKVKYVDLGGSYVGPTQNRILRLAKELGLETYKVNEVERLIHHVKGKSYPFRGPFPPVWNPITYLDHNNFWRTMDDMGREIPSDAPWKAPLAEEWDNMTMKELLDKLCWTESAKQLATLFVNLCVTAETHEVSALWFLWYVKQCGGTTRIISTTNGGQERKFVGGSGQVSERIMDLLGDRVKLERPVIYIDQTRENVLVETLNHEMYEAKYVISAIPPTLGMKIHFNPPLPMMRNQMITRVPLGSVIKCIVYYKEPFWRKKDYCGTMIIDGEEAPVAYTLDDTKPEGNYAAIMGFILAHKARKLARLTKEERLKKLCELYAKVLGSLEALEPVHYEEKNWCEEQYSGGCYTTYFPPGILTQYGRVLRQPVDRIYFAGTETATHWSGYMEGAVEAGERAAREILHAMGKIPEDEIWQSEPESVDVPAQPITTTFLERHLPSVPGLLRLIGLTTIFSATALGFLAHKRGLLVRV
Protocol: Briefly, the compounds under investigation and the reference inhibitor were preincubated with kynuramine at 37°C for 10 min in 96-well microplates. […] The enzymatic reactions were terminated by adding 400 μL of 2 N NaOH and 1,000 μL of water, followed by centrifugation at 16,000 g for 10 min. Subsequently, the concentrations of MAOs that produced 4-hydroxyquinoline were determined by measuring the fluorescence of the supernatant using a Varioskan Flash Multimode Reader ([…]) with excitation and emission wavelengths set at 310 nm and 400 nm, respectively. The IC50 values were calculated from dose-response curves and expressed as the mean ± standard deviation. These values were determined based on at least three independent experiments, each performed in triplicate.

[8] = system: AChE; settings: read-out: AChE (harmine, Figure 1); ref Beato et al., 2021; Li et al., 2023; cited from earlier work
[9] = system: BuChE; settings: read-out: BuChE (harmine, Figure 1); ref Beato et al., 2021; Li et al., 2023; cited from earlier work
[10] = system: GSK-3β; set-up: method as in Beato et al., 2021; Li et al., 2023; settings: read-out: GSK-3β (harmine, Figure 1); ref Beato et al., 2021; Li et al., 2023; cited from earlier work

## COc1ccc(/C=C/c2cnc(/C=C/c3ccc(OC)cc3)cn2)cc1 [Compound 3, Bis-(arylvinyl)-pyrazines]
[1]
  IC50: 0.017 µM
[2]
  IC50: 0.013 µM

## Cc1nccc2c1[nH]c1cc(OCc3cn(Cc4ccccc4Cl)nn3)ccc12 [Compound 6]
[3]; ref Du et al., Haider et al., 2018, read-out: MAO-A (compound 6 of Figure 1)
  IC50: 0.83 µM
[4]
  IC50: 0.26 µM

## COc1ccc2c(c1)[nH]c1c(C)nccc12 [Harmine]
[5]
  inhibition at 1 µM: 30.9%
[6]
  inhibition at 1 µM: 23.5%
[7]
  inhibition at 1 µM: 23.5%
[8]
  IC50: 9.05 µM
[9]
  IC50: 75.1 µM
[3]; read-out: MAO-A (harmine, Figure 1), ref Beato et al., 2021, Li et al.
  IC50: 0.38 µM
[10]
  IC50: 31.3 µM
